The values below come from patent US20240059740A1, “CYCLIC PEPTIDES AND USES THEREOF” (PRE[…] INC., priority 2020, published 2024).

In one series the test system is Snail-1 mRNA. The series is described as follows: Real time RT-PCR, Snail-1 mRNA expression. The series is classed as cell-based, human. The text has this: The real-time reverse transcription polymerase chain reaction (RT-PCR) uses fluorescent reporter molecules to monitor the production of amplification products during each cycle of the PCR reaction. This combines the nucleic acid amplification and detection steps into one homogeneous assay and use of appropriate chemistries and data analysis eliminates the need for Southern blotting or DNA sequencing for amplicon identification. Its simplicity, specificity and sensitivity, together with its potential for high throughput and the ongoing introduction of new chemistries, more reliable instrumentation and improved protocols, has made real-time RT-PCR the benchmark technology for the detection and/or comparison of RNA levels.’
In order to detect and quantify the expression of specific genes at mRNA level, real-time reverse transcriptase polymerase chain reaction (Real time RT-PCR) was performed. Total RNA of samples was isolated and purified using the PureLink® RNA Mini Kit (Life technologies). The concentration of total RNA was detected by NanoDrop 2000 Spectrophotometer (Thermo Scientific). The total RNA (2000 ng) was reverse transcribed using the High-Capacity cDNA Reverse Transcription Kit (Applied Biosystems™).
The primers of target genes were TaqMan™ Gene Expression Assay for human PLAU (Hs01547054_m1), MMP-2 (Hs01548727_m1), MMP-9 (Hs00957562_m1), Snail-1 (Hs00195591_m1), Snail-2 (Hs00161904_m1), N-cadherin (Hs00983056_m1) and Twist (Hs01675818_s1). Relative quantification was done by reference to 18S ribosomal RNA (18S rRNA) and analysed using the comparative critical threshold (Ct) method
The mRNA expression of MMPs was measured using qRT-PCR. This was tested three independent times; the results are shown in Tables 9, 10 and 11 for U251, U87 cells and O81024 cells respectively. Results are reported as percent of the control cells (no treatment). Both MMP-2 and uPA were decreased in U251 by SEQ ID NO.1.
Epithelial-mesenchymal transition (EMT) is the process by which epithelial cells acquire a migratory (metastatic) phenotype and so EMT is associated with cancer metastasis, cancer cell stemness, chemoresistance and immune resistance. Therefore, the determination of the mRNA expression of EMT markers is a valuable tool to evaluate invasion potential of cancer cells.
The ‘Snail’ superfamily is involved in cell differentiation and survival, two processes central in cancer research. Snail-1 has a pivotal role in the regulation of epithelial-mesenchymal transition (EMT) and Snail-1 expression is associated with poor prognosis in metastatic cancer, and tumours with elevated Snail-1 expression are harder to treat. The significance of Snail-1 as a prognostic indicator, its involvement in the regulation of EMT and metastasis, and its roles in both drug and immune resistance point out that Snail-1 is an attractive target for tumour growth inhibition and a target for sensitization to cytotoxic drugs (Kaufhold et al., 2014). Twist is transcriptionally active during cell differentiation and lineage determination. During the establishment of cancer metastases by EMT, Twist acts independently of Snail to suppress E-cadherin and to upregulate N-cadherin (CDH-2) and fibronectin. Snail-2 (Slug) is another member of the SNAIL family of transcriptional activators and serves an important role in suppressing the epithelial phenotype in numerous cancer cells (Iwadate, 2016).

Another series relates to U251 cells. The series is described as follows: MTT assay for cytotoxicity, U251. The class given is cell-based, human. As to conditions: 48 hours, % viability of control. The source says:
The MTT (3-[4.5-dimethylthiazol-2-yl]-2,5═diphenyl tetrazolium bromide) assay is based on a process undertaken by living cells, involving the conversion of MTT into formazan crystals. This assay is used routinely to measure the in vitro cytotoxic effects of drugs on cell lines or primary patient cells (Van Meerloo et al., 2011). The MTT assay measures mitochondrial activity, so in some instances where the peptide activates mitochondrial response, the results appear to increase the number of cells present i.e. >100% cell viability.
The aim of this experiment was to identify peptide concentrations that are active on living cells and cell viability was assessed.
The glioblastoma multiforme (GBM) cell lines used were U87 and U251 cells and patient derived cells grown as oncospheres (081024 cells). Human adherent GBM cell lines U87 and U251 were cultured in RPMI medium (Life Technologies Melbourne Australia) supplemented with 5% v/v FBS, 100 U/mL penicillin and 100 μg/mL streptomycin. 081024 cells were cultrured in NeuroCult™ NS-A Proliferation medium with 0.2% (v/v) heparin, 20 ng/mL EGF and 10 ng/mL FGF.
8×10^3 U87 and 7×10^3 U251 cells per well were seeded in 96 well plates in 200 μL serum-containing RPMI medium and incubated at 37° C. with 5% CO2 for 24 hours. After one wash with serum-free medium, 100 μL serum-free medium with different concentration of peptide SEQ ID NO:1 was added to each well. After 48 hours incubation, 10 μL of 0.5 mg/mL MTT was added and incubated for 2 hours at 37° C. Formazan crystals were dissolved by 200 μL/well dimethyl sulfoxide (DMSO) and shaking for 15 minutes. The UV absorbance was read with an iMark™ microplate absorbance reader at 595 nm (Bio-Rad Laboratories). Background absorbance was subtracted and results expressed as the % viability of control (untreated cells).

Residues, ends and D or L forms follow the SMILES beside them.

`CC(C)C[C@@H]1NC(=O)[C@H](C)NC(=O)[C@@H](NC(=O)[C@@H]2CCCN2C(=O)[C@@H](N)CC(C)C)CSSC(C)(C)CNC(=O)CC[C@@H](C(=O)N[C@@H](CCCNC(=N)N)C(N)=O)NC(=O)[C@H](CC(=O)O)NC(=O)[C@H](CC(N)=O)NC1=O` [SEQ ID NO: 1, Leu-Pro-c(SSA*-Ala-Leu-Asn-Asp-Glu)-Arg-NH2] (HELM PEPTIDE1{L.P.C.A.L.N.D.E.R.[am]}|CHEM1{[CC(C)(CN[*:2])S[*:1]]}$PEPTIDE1,CHEM1,3:R3-1:R1|PEPTIDE1,CHEM1,8:R3-1:R2$$$V2.0; N-terminus assumed): the “mRNA expression, Snail-1” value was 0.60 in the series on Snail-1 mRNA (081024 cells, baseline expression level = 1, listed as SEQ ID NO. 1); “halved” in the series on Snail-1 mRNA (081024 cells, baseline expression level = 1, listed as SEQ ID NO.1); 0.84 in the series with Snail-1 mRNA (U87 cells, baseline expression level = 1); 0.42 in the series on Snail-1 mRNA (U251 cells, relative to control (no treatment), listed as SEQ ID NO. 1); “decreased” in the series with Snail-1 mRNA (U251 cells, relative to control (no treatment), listed as SEQ ID NO.1). Further, the Cell viability in the series on U251 cells (1 μM) was determined as 100.7%; in the series with U251 cells (5 μM), 101.7%; in the series on U251 cells (10 μM) it was 100.4%; in the series on U251 cells (50 μM), 107.3%; in the series on U251 cells (100 μM), 105.5%; in the series with U251 cells (500 μM), 93.84%. The Cell viability in the series with U251 cells (1 mM) came out at 83.99%.
